Test results: PubChem BioAssay (NCI)
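Assay format: 96-well plates, 48-hour exposure. TGI: total growth inhibition.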

Tests used:
Assay in all cases: growth of human tumour cells (NCI), 48 h
SF-295 CNS = test system: SF-295 CNS
DMS 273 small cell lung = test system: DMS 273 small cell lung
SNB-19 CNS = test system: SNB-19 CNS
MOLT-4 leukemia = test system: MOLT-4 leukemia
KM20L2 colon = test system: KM20L2 colon
NCI-H226 lung = test system: NCI-H226 lung
UO-31 renal = test system: UO-31 renal
COLO 205 colon = test system: COLO 205 colon
TK-10 renal = test system: TK-10 renal
SK-MEL-28 melanoma = test system: SK-MEL-28 melanoma
M19-MEL melanoma = test system: M19-MEL melanoma

Compound	TGI (SF-295 CNS)	TGI (DMS 273 small cell lung)	TGI (SNB-19 CNS)	TGI (MOLT-4 leukemia)	TGI (KM20L2 colon)	TGI (NCI-H226 lung)	TGI (UO-31 renal)	TGI (COLO 205 colon)	TGI (TK-10 renal)	TGI (SK-MEL-28 melanoma)	TGI (M19-MEL melanoma)
COC(=O)CC(=O)OSc1ccccc1	96.3 µM	41 µM	> 100 µM	> 100 µM	42.2 µM	64 µM	24.7 µM	38.2 µM	> 100 µM	–	–
O=[N+]([O-])c1ccc(C[P+]2(c3ccccc3)CCCCC2)cc1	> 100 µM	> 100 µM	> 100 µM	> 100 µM	> 100 µM	> 100 µM	> 100 µM	> 100 µM	> 100 µM	> 100 µM	–
COc1cc2ccc3c4cc(OC)c(OC)cc4c[n+](C)c3c2cc1O	–	> 100 µM	> 100 µM	> 100 µM	> 100 µM	> 100 µM	> 100 µM	> 100 µM	> 100 µM	> 100 µM	> 100 µM
CC1=NN(C(=O)Cc2ccccc2)C(=O)/C1=C\c1ccc(O)cc1	> 100 µM	–	> 100 µM	> 100 µM	> 100 µM	> 100 µM	> 100 µM	> 100 µM	> 100 µM	> 100 µM	> 100 µM
CN(C)CCNC(=O)c1cccc2c1Nc1ccccc1S2	27.7 µM	29.3 µM	24 µM	29.5 µM	29.9 µM	16.8 µM	21.8 µM	25.8 µM	–	27.7 µM	29.6 µM
CSCC[C@@H](NC(=O)[C@H](CC(C)C)NC(=O)C(Cc1cnc[nH]1)NC(=O)CNC(=O)[C@@H](NC(=O)[C@H](C)NC(=O)[C@H](Cc1c[nH]c2ccccc12)NC(=O)[C@H](CCC(N)=O)NC(=O)[C@@H](N)CC(N)=O)C(C)C)C(N)=O (stereo not given in full)	> 100 µM	> 100 µM	> 100 µM	> 100 µM	> 100 µM	> 100 µM	> 100 µM	> 100 µM	–	> 100 µM	> 100 µM
N#CNC(N)=NCc1ccccc1	> 100 µM	> 100 µM	–	> 100 µM	> 100 µM	> 100 µM	> 100 µM	> 100 µM	> 100 µM	> 100 µM	> 100 µM
COc1cc(C)c(CC/C(C)=C/Cc2cc(O)ccc2O)c(C)c1C	> 25 µM	> 25 µM	> 25 µM	> 25 µM	> 25 µM	> 25 µM	> 25 µM	> 25 µM	> 25 µM	> 25 µM	> 25 µM
CCOC(=O)C1C(c2ccc(Cl)cc2Cl)NC(c2ccc(C)cc2)C(C(=O)OC)S1(=O)=O (stereo not given)	> 100 µM	> 100 µM	> 100 µM	> 100 µM	–	> 100 µM	> 100 µM	> 100 µM	> 100 µM	> 100 µM	> 100 µM
CC(=O)NNc1nc(C)c(C(=O)NNC(=O)C(=O)Nc2ccc([N+](=O)[O-])cc2[N+](=O)[O-])s1	> 100 µM	> 100 µM	> 100 µM	> 100 µM	> 100 µM	> 100 µM	> 100 µM	> 100 µM	> 100 µM	> 100 µM	–
